Several values for one entry are separate records, joined by “and”; a condition that tells them apart may be missing. Identical values can stand only once. Like-named read-outs stand apart in the source and are kept apart here. Blank lines part the entries; values can stand above or below the molecule they belong to.
Legend:
MV-4-11 = assay: Cell Titer-Blue cell viability assay, MV-4-11 (AML); type: cell-based; settings: Homo sapiens, MV4-11; AML cell line MV-4-11, 72 hrs exposure
Experimental: (§1) Anti-cancer efficacy of exemplary compounds of this application was assessed in vitro in different cancer cell lines. Cell viability was examined following treatment at various concentration of inhibitor (0.097656-50 μM) using a cell Titer-Blue cell viability assay. 1×10^4 cells/well were plated in 96-well assay plates in culture medium. All cells were grown in DMEM, IMDM and RPMI-1640 supplemented with 10% FBS. After 24 hrs, test compounds and vehicle controls were added to appropriate wells so the final volume was 100 μl in each well. The cells were cultured for the desired test exposure period (72 hrs) at 37° C. and 5% CO2. The assay plates were removed from 37° C. incubator and 20 μl/well of CellTiter-Blue® Reagent was added. The plates were incubated using standard cell culture conditions for 1-4 hours and the plates were shaken for 10 seconds and fluorescence recorded at 560/590 nm.
(§2) Compound I and II were tested for their efficacy against selected chronic myelogenous leukemia, acute myeloid leukemia and healthy human lung cell lines using the protocol stated above.

MOLM-13 = assay: Cell Titer-Blue cell viability assay, MOLM-13 (AML); type: cell-based; settings: Homo sapiens; AML cell line MOLM-13, 72 hrs exposure
Experimental: as §1, §2

[1] = Bioavailability / PK study in CD-1 mice (IP injection); type: in vivo; settings: plasma, 20 mg/kg IP
Experimental: The study groups for PK for compound I, II and comparative experiments with AC-3-19 and JPX-0371 experiments are shown in Table 2.
All animals had free access to food and water. Dose formulation processing during dosing: The formulations will be kept stirred at room temperature for at least 15 min before dosing and during the dosing. Pharmacokinetics (PK) Schedule shown below in Table 3.
Approximately 0.03 mL blood was collected at each time point. Blood of each sample was transferred into plastic micro centrifuge tubes containing heparin-Na as anticoagulant. Collection tubes with blood samples and anticoagulant were inverted several times for proper mixing of the tube contents and then placed on wet ice prior to centrifugation for plasma. The blood samples were centrifuged at 4000 g for 5 min at 4° C. to obtain plasma. The samples were stored in a freezer at −75±15° C. prior to analysis. The study used CD-1 mice (male), n=3, at age approx. 6-8 weeks (20-30 g).
Concentrations of compounds in the plasma samples were analyzed using a LC-MS/MS method. WinNonlin (Phoenix™, version 6.1). Other similar software could have also been used for pharmacokinetic calculations. Pharmacokinetic parameters were calculated, whenever possible from the plasma concentration versus time data: IP parameters including T1/2, Cmax, Tmax, AUClast, AUCinf, MRT are calculated.

K562 = assay: Cell Titer-Blue cell viability assay, K562 (CML); type: cell-based; settings: Homo sapiens; CML cell line K562, 72 hrs exposure
Experimental: as §1, §2

HaCat = assay: Cell Titer-Blue cell viability assay, HaCat (healthy cell line); type: cell-based; settings: Homo sapiens, 72 hrs exposure
Experimental: as §1

MRC-9 = assay: Cell Titer-Blue cell viability assay, MRC-9 (healthy cell line); type: cell-based; settings: Homo sapiens, MRC9; healthy cell line MRC-9, 72 hrs exposure
Experimental: as §1, §2

[2] = Intrinsic clearance in mouse hepatocyte; type: in vitro ADME; settings: mouse, mouse hepatocytes, time points 0-120 minutes, read-out: In vitro T1/2 in mouse hepatocytes
Experimental: (§3) A stock of 100 μM test compound was prepared by diluting the 10 mM test compound in DMSO with a solution of 50% acetonitrile and 50% water. In a 96-well non-coated plate, 198 μL of hepatocytes was pipetted, and the plate was placed in the incubator on an orbital shaker to allow the hepatocytes to warm for 10 minutes. To this solution was added 2 μL of the 100 μM test compound to start the reaction, and the plate was placed on an orbital shaker. At time points of 0, 15, 30, 60, 90 and 120 minutes, the aliquots were mixed with a solution of acetonitrile and internal standard (100 nM alprazolam, 200 nM labetalol, and 2 μM ketoprofen) to terminate the reaction. The reaction solution was then vortexed for 10 minutes and centrifuged at 4,000 rpm for 30 minutes at 4° C. […] of the supernatant was transferred to one new 96-well plate, centrifuged at 4,000 rpm for 30 minutes at 4° C., and 100 μL of the supernatant was transferred to a new 96-well plate ensuring the pellet was not disturbed. 100 μL of ultrapure water was added to all samples for analysis by LC-MS/MS.
(§4) The in vitro half-life (T1/2) was determined by the linear regression of the natural logarithm of the remaining percentage of the parent drug vs. incubation time curve. The slope value (k) of the curve was then substituted into the following equation to determine the in vitro half-life
(§5) The in vitro intrinsic clearance (in vitro CLint, in μL/min/10^6 cells) was determined by the following equation.
(§6) Where volume of incubation=0.2 mL and number of hepatocytes per well=0.1×10^6 cells.
(§7) Bioanalytical method: Column—Phenomenex Synergi 4μ Hydro-PR 80A (2.0×30 mm).
(§8) Mobile phase—0.1% formic acid in water (solvent A) and 0.1% formic acid in acetonitrile (solvent B). Column temperature—room temperature. Injection volume—10 μL. MS analysis—API 4000 instrument from AB Inc (Canada) with an ESI interface.

Mouse Hepatocyte = assay: Intrinsic clearance in mouse hepatocyte; type: in vitro ADME; settings: time points 0-120 minutes
Experimental: as §3, §4, §5, §6, §7, §8

NIH 3T3 = assay: Cell Titer-Blue cell viability assay, NIH 3T3; type: cell-based; settings: Mus musculus, NIH3T3; NIH 3T3 cells, 72 hrs exposure
Experimental: as §1

[3] = system: phosphorylation of Shc, Src, Jak-1/2, Erk1/2 or Akt; settings: cited from earlier work
[4] = system: non-transformed cells (NIH 3T3 cells, STAT3 null mouse embryo fibroblasts, or mouse thymus stromal cells); settings: cited from earlier work
[5] = system: xenograft models of lung or breast cancer; settings: murine xenograft models of lung or breast cancer; cited from earlier work
[6] = male, CD-1, mouse, ip, 20 mg/kg, read-out: t1/2 (converted)
[7] = male, CD-1, mouse, ip, 20 mg/kg, individual animal
[8] = male, CD-1, mouse, ip, 20 mg/kg, mean N=3

Molecule: CC(C)(C)c1cc(CN(C(=O)CN(Cc2ccc(Cl)cc2)S(=O)(=O)c2c(F)c(F)c(F)c(F)c2F)c2ccc(C(=O)O)c(O)c2)cc(C2CC2)c1 [Compound I]
- IC50 (K562): 4100 nM
- IC50 (MV-4-11): 560 nM
- IC50 (MOLM-13): 1700 to 2500 nM
- IC50 (HaCat): 20000 nM
- IC50 (MRC-9): 30000 nM
- half-life at 1 µM [2]: 1.67 h
- In vitro T1/2 in mouse hepatocytes (Mouse Hepatocyte): 1.68 h
- AUC Extr ([1]; individual animal, 20 mg/kg): 0.346% and 0.385% and 0.325%
- AUCInf ([1]; individual animal, 20 mg/kg): 7245 ng·h/mL and 6566 ng·h/mL
- AUClast ([1]; individual animal, 20 mg/kg): 7217 ng·h/mL and 6545 ng·h/mL
- Cmax ([1]; individual animal, 20 mg/kg): 3290 ng/mL and 3480 ng/mL
- MRT ([1]; individual animal, 20 mg/kg): 1.99 h and 1.81 h
- t1/2 ([1]; individual animal, 20 mg/kg): 3.91 h and 3.97 h
- AUC Extr ([1]; mean N=3): 0.352%
- AUC(0-inf) [1, 7]: 5820 ng·h/mL
- AUC(0-t) [1, 7]: 5800 ng·h/mL
- Cmax ([1]; male, CD-1, mouse, ip, 20 mg/kg, individual animal, read-out: Cmax): 3010 ng/mL
- MRT ([1]; male, CD-1, mouse, ip, 20 mg/kg, individual animal, read-out: MRT): 1.87 h
- half-life ([1]; male, CD-1, mouse, ip, 20 mg/kg, individual animal, read-out: t1/2 (converted)): 3.92 h
- AUC(0-inf) [1, 8]: 6540 ng·h/mL
- AUC(0-t) [1, 8]: 6520 ng·h/mL
- Cmax ([1]; male, CD-1, mouse, ip, 20 mg/kg, mean N=3, read-out: Cmax): 3260 ng/mL
- MRT ([1]; male, CD-1, mouse, ip, 20 mg/kg, mean N=3, read-out: MRT): 1.89 h
- half-life ([1]; male, CD-1, mouse, ip, 20 mg/kg, mean N=3, read-out: t1/2 (converted)): 3.93 h
- half-life ([1]; male, CD-1, mouse, ip, 20 mg/kg, read-out: calculated T1/2 (FIG. 6) (converted)): 3.9 h
- Tmax ([1]; male, mouse, mean N=3): 0.5 h

Molecule: BP-1-102
- effect on phosphorylation of Shc, Src, Jak-1/2, Erk1/2 or Akt [3]: little or no effect
- effect on non-transformed cells [4]: no effect
- anti-tumor effect in vivo [5]: dramatic regression in tumor volumes

Molecule: CC(C)(C)c1cc(CN(C(=O)CN(Cc2ccc(Cl)cc2)S(=O)(=O)c2c(F)c(F)c(F)c(F)c2F)c2ccc(C(=O)O)cc2)cc(C2CC2)c1 [Compound II]
- IC50 (MV-4-11): 480 nM
- half-life at 1 µM [2]: 0.767 h

Second part, led by results:

- IC50 (MV-4-11): 930 nM
- IC50 (MOLM-13): 1100 nM
- half-life [1, 6]: 0.31 h
Molecule: O=C(O)c1ccc(N(Cc2cccc(C3CCCC3)c2)C(=O)CN(Cc2ccc(Cl)cc2)S(=O)(=O)c2c(F)c(F)c(F)c(F)c2F)cc1 [JPX-313, 4-(2-((N-(4-chlorobenzyl)-2,3,4,5,6-pentafluorophenyl)sulfonamido)-N-(3-cyclopentylbenzyl)acetamido)benzoic acid]

- IC50 (MV-4-11): 7900 nM
- IC50 (MOLM-13): 6400 nM
- half-life [1, 6]: 0.94 h
Molecule: O=C(O)c1ccc(N(Cc2cccc(C3CCCC3)c2)C(=O)CN(Cc2ccc(Cl)cc2)S(=O)(=O)c2c(F)c(F)c(F)c(F)c2F)cc1O [JPX-062, 4-(2-((N-(4-chlorobenzyl)-2,3,4,5,6-pentafluorophenyl)sulfonamido)-N-(3-cyclopentylbenzyl)acetamido)-2-hydroxybenzoic acid]

- IC50 (K562): 2600 nM
- IC50 (MV-4-11): 210 nM
- half-life [1, 6]: 0.35 h
Molecule: O=C(O)c1ccc(N(Cc2cccc(C3CCCC3)c2)C(=O)CN(Cc2c(F)c(F)c(F)c(F)c2F)S(=O)(=O)c2c(F)c(F)c(F)c(F)c2F)cc1 [JPX-303, 4-(N-(3-cyclopentylbenzyl)-2-((2,3,4,5,6-pentafluoro-N-((perfluorophenyl)methyl)phenyl)sulfonamido)acetamido)benzoic acid]
- IC50 (NIH 3T3): 5190 nM

- IC50 (MV-4-11): 1100 nM
- IC50 (MOLM-13): 800 nM
- half-life [1, 6]: 0.861 h
Molecule: O=C(O)c1ccc(N(Cc2cccc(C3CCCC3)c2)C(=O)CN(Cc2c(F)c(F)c(F)c(F)c2F)S(=O)(=O)c2c(F)c(F)c(F)c(F)c2F)cc1O [JPX-320]

Source: patent US20220089531A1, “NEW […] ACID DERIVATIVES, PHARMACEUTICALLY ACCEPTABLE SALT THEREOF, COMPOSITION THEREOF AND METHOD OF USE THEREOF” (THE GOVERNING COUNCIL OF THE UNIVERSITY OF TORONTO, priority 2018, published 2022)
